Measured values published in US20250136581A1, “SUBSTITUTED TRIAZOLE DERIVATIVE, PREPARATION METHOD THEREFOR, PHARMACEUTICAL COMPOSITION THEREOF, AND USE THEREOF” (SHANGHAI SIMR BIOTECHNOLOGY CO., LTD., priority 2021, published 2025).

Target: human α5β3γ2 receptors (α5-GABAA receptor) (Homo sapiens (Human), UniProt P18507+P31644)
Assay: 3H-flunitrazepam competition binding, human α5β3γ2 GABAA receptor
Conditions: HEK293 cell membranes, 1 nM 3H-flunitrazepam; read-out: α5-GABAAR Ki
Protocol: The affinity of the compound to each subtype of GABAA receptor was determined by competing for the binding of ^3H-flunitrazepam to HEK293 cells stably expressing human α1β3γ2, α2β3γ2, α3β3γ2, and α5β3γ2 receptors.
The cells were suspended in 50 mM Tris-HCl buffer (pH=7.4), homogenized 10 times on ice with a homogenizer for 20 seconds, and centrifuged at 1000 g for 10 minutes at 4° C. The supernatant was collected, and the above steps were repeated. The supernatant was centrifuged at 4° C. (33800 g; Thermo, rotor: A27-8×50) for 60 minutes, and the precipitate was resuspended in Tris buffer (50 mM Tris-HCl, 10 mM MgCl2, 0.5 mM EDTA, 10% glycerol). Protein was measured (BCA method, Pierce), and 1 mL aliquots were prepared and stored at −80° C.
The radioligand competition binding assay was performed in a 200 μL system (96-well plate) containing 100 μL of cell membrane. The concentration of ^3H-flunitrazepam was 1 nM and the concentration of the test compound was in the range of […]. Flumazenil was used as a control. 1 μL of 2 mM flumazenil (final concentration […]) was added to the low signal control well (Low control, LC), and 1 μL of DMSO was added to the high signal control well (High control, HC). The final concentration of target membrane protein was […]. All test compound sample storage solutions were 10 mM. The working concentration of the samples was to dilute all the samples to 0.2 mM with DMSO, followed by 4-fold serial gradient dilutions for a total of 8 concentration gradients. The 96-well plate was sealed with a sealing film, and then incubated on a shaker at room temperature for 1 hour. At the same time, the GF/C filter plate was soaked in soaking buffer (0.3% PEI, stored at 4° C.) for at least 0.5 hours. After the binding incubation was completed, the cells were collected onto a GF/C filter plate using a cell harvester. The plate was washed four times with washing buffer (50 mM Tris-HCl, pH 7.4, stored at 4° C.). After drying in a 50° C. oven for 1 hour, the bottom of the dried GF/C filter plate was sealed. The residual radioactivity on the filter membrane was detected using liquid scintillation counting. 50 μL of scintillation fluid was added to each well, and the plate was sealed. The readings were taken using a Microbeta2. The inhibitory activity of the test sample on the binding of ^3H-flunitrazepam to GABAA receptor membrane proteins was calculated, and the IC50 of each test sample was calculated by dose-effect curve fitting (GraphPad Prism 5 software), and the Ki of the sample was calculated from the IC50, thus evaluating the binding ability of the sample to the various subtypes of GABAA receptors.

Structure (SMILES) | Ki
Cc1nnn(-c2ccc(C(F)F)cc2)c1COc1ccc(N2CCN(CCn3cccn3)C(=O)C2)nn1 [Example 138, 1-(2-(1H-Pyrazol-1-yl)ethyl)-4-(6-((1-(4-(difluoromethyl)phenyl)-4-methyl-1H-1,2,3-triazol-5-yl)methoxy)pyridazin-3-yl)piperazin-2-one] | 2.11 nM
COCCCN1CCN(c2ccc(OCc3c(C)nnn3-c3ccc(C(F)F)cc3)nn2)CC1=O [Example 140, 4-(6-((1-(4-(Difluoromethyl)phenyl)-4-methyl-1H-1,2,3-triazol-5-yl)methoxy)pyridazin-3-yl)-1-(3-methoxypropyl)piperazin-2-one] | 1.41 nM
Cc1nnn(-c2ccc(C(F)F)cc2)c1COc1ccc(N2CCN(C3CN(C(C)C)C3)C(=O)C2)nn1 [Example 142, 4-(6-((1-(4-(Difluoromethyl)phenyl)-4-methyl-1H-1,2,3-triazol-5-yl)methoxy)pyridazin-3-yl)-1-(1-isopropylazetidin-3-yl)piperazin-2-one] | 1.8 nM
Cc1nnn(-c2ccc(C(F)F)cc2)c1COc1ccc(N2CCN(CCCc3ccc(Cl)cc3)C(=O)C2)nn1 [Example 144, 1-(3-(4-Chlorophenyl)propyl)-4-(6-((1-(4-(difluoromethyl)phenyl)-4-methyl-1H-1,2,3-triazol-5-yl)methoxy)pyridazin-3-yl)piperazin-2-one] | 1.63 nM
COc1cnccc1NC(=O)C1CN(c2ccc(OCc3c(C)nnn3-c3ccc(C(F)F)cc3)nn2)C1 [Example 149, 1-(6-((1-(4-(Difluoromethyl)phenyl)-4-methyl-1H-1,2,3-triazol-5-yl)methoxy)pyridazin-3-yl)-N-(3-methoxypyridin-4-yl)azetidine-3-carboxamide] | 2.04 nM
Cc1nnn(-c2ccc(C(F)F)cc2)c1COc1ccc(N2CC(C(=O)Nc3cnn(C(C)C)c3)C2)nn1 [Example 150, 1-(6-((1-(4-(Difluoromethyl)phenyl)-4-methyl-1H-1,2,3-triazol-5-yl)methoxy)pyridazin-3-yl)-N-(1-isopropyl-1H-pyrazol-4-yl)azetidine-3-carboxamide] | 2.35 nM
COc1cccnc1NC(=O)C1CN(c2ccc(OCc3c(C)nnn3-c3ccc(C(F)F)cc3)nn2)C1 [Example 152, 1-(6-((1-(4-(Difluoromethyl)phenyl)-4-methyl-1H-1,2,3-triazol-5-yl)methoxy)pyridazin-3-yl)-N-(3-methoxypyridin-2-yl)azetidine-3-carboxamide] | 1.65 nM
Cc1nnn(-c2ccc(C(F)F)cc2)c1COc1ccc(N2CC(C(=O)Nc3cnn(C(F)F)c3)C2)nn1 [Example 153, N-(1-(Difluoromethyl)-1H-pyrazol-4-yl)-1-(6-((1-(4-(difluoromethyl)phenyl)-4-methyl-1H-1,2,3-triazol-5-yl)methoxy)pyridazin-3-yl)azetidine-3-carboxamide] | 1.89 nM
Cc1nnn(-c2ccc(C(F)F)cc2)c1COc1ccc(N2CC(C(=O)N3CCOC(C)(C)C3)C2)nn1 [Example 158, (1-(6-((1-(4-(Difluoromethyl)phenyl)-4-methyl-1H-1,2,3-triazol-5-yl)methoxy)pyridazin-3-yl)azetidin-3-yl)(2,2-dimethylmorpholino)methanone] | 4.31 nM
COCc1ccc(-n2nnc(C)c2COc2ccc(N3CCN4CCNC(=O)[C@@H]4C3)nn2)cc1 [Example 161, (S)-8-(6-((1-(4-(Methoxymethyl)phenyl)-4-methyl-1H-1,2,3-triazol-5-yl)methoxy)pyridazin-3-yl)hexahydro-2H-pyrazino[1,2-a]pyrazin-1(6H)-one] | 13.8 nM
Cc1nnn(-c2ccc(Cl)cc2)c1COc1ccc(N2CCNC(=O)C2)nn1 [Example 164, 4-(6-((1-(4-Chlorophenyl)-4-methyl-1H-1,2,3-triazol-5-yl)methoxy)pyridazin-3-yl)piperazin-2-one] | 2.4 nM
Cc1nnn(-c2ccc(C(F)F)cc2)c1COc1ccc(C2CCNC(=O)C2)cn1 (stereo not drawn) [Example 170, 4-(6-((1-(4-(Difluoromethyl)phenyl)-4-methyl-1H-1,2,3-triazol-5-yl)methoxy)pyridin-3-yl)piperidin-2-one] | 2.3 nM
Cc1nnn(-c2ccc(C(F)F)cc2)c1COc1ccc(N2CC(=O)N3CCS(=O)(=O)C[C@H]3C2)nn1 [Example 175, (R)-8-(6-((1-(4-(Difluoromethyl)phenyl)-4-methyl-1H-1,2,3-triazol-5-yl)methoxy)pyridazin-3-yl)hexahydropyrazino[2,1-c][1,4]thiazin-6(1H)-one 2,2-dioxide] | 2.63 nM

Other lines, results leading:

Ki | Structure (SMILES)
1.05 nM | COc1cc(OCc2c(C)nnn2-c2ccc(C(F)F)cc2)nnc1N1CCNC(=O)C1 [Example 135, 4-(6-((1-(4-(Difluoromethyl)phenyl)-4-methyl-1H-1,2,3-triazol-5-yl)methoxy)-4-methoxypyridazin-3-yl)piperazin-2-one]
0.49 nM | Cc1nnn(-c2ccc(C(F)F)cc2)c1COc1nnc(N2CCNC(=O)C2)c2ncccc12 [Example 137, 4-(5-((1-(4-(Difluoromethyl)phenyl)-4-methyl-1H-1,2,3-triazol-5-yl)methoxy)pyrido[2,3-d]pyridazin-8-yl)piperazin-2-one]
1.36 nM | Cc1nnn(-c2ccc(C(F)F)cc2)c1COc1ccc(N2CC(C(=O)Nc3cccnc3F)C2)nn1 [Example 151, 1-(6-((1-(4-(Difluoromethyl)phenyl)-4-methyl-1H-1,2,3-triazol-5-yl)methoxy)pyridazin-3-yl)-N-(2-fluoropyridin-3-yl)azetidine-3-carboxamide]
1.08 nM | Cc1nnn(-c2ccc(C(F)F)cc2F)c1COc1ccc(N2CCNC(=O)C2)nn1 [Example 167, 4-(6-((1-(4-(Difluoromethyl)-2-fluorophenyl)-4-methyl-1H-1,2,3-triazol-5-yl)methoxy)pyridazin-3-yl)piperazin-2-one]
0.67 nM | CCNC(=O)C1=CCCN(c2ccc(OCc3c(C)nnn3-c3ccc(C(F)F)cc3)nn2)C1 [Example 172, 1-(6-((1-(4-(Difluoromethyl)phenyl)-4-methyl-1H-1,2,3-triazol-5-yl)methoxy)pyridazin-3-yl)-N-ethyl-1,2,5,6-tetrahydropyridine-3-carboxamide]
1.39 nM | Cc1nnn(-c2ccc(C(F)F)cc2)c1COc1ccc(N2CC(=O)N3CCOC[C@@H]3C2)nn1 [Example 174, (S)-8-(6-((1-(4-(Difluoromethyl)phenyl)-4-methyl-1H-1,2,3-triazol-5-yl)methoxy)pyridazin-3-yl)hexahydropyrazino[2,1-c][1,4]oxazin-6(1H)-one]
1.34 nM | Cc1nnn(-c2ccc(C(F)F)cc2)c1COc1ccc(N2CC(=O)N3CCS(=O)(=O)C[C@@H]3C2)nn1 [Example 176, (S)-8-(6-((1-(4-(Difluoromethyl)phenyl)-4-methyl-1H-1,2,3-triazol-5-yl)methoxy)pyridazin-3-yl)hexahydropyrazino[2,1-c][1,4]thiazin-6(1H)-one 2,2-dioxide]
1.26 nM | Cc1nnn(-c2ccc(C(F)F)cc2)c1COc1ccc(N2CC(=O)N3C[C@@H]4C[C@]3(CO4)C2)nn1 [Example 177, (3S,9aR)-8-(6-((1-(4-(Difluoromethyl)phenyl)-4-methyl-1H-1,2,3-triazol-5-yl)methoxy)pyridazin-3-yl)tetrahydro-1H-3,9a-methanopyrazino[2,1-c][1,4]oxazin-6(7H)-one]
